Consider 10 molecules from ChEMBL document CHEMBL1146712, “Synthesis and biological evaluation of [4-(2-phenylethenesulfonylmethyl)phenyl]-quinazolin-4-yl-amines as orally active anti-cancer agents” (2004).

SMILES strings stand for the structures.

One test concerns ACHN. Briefly: Concentration required to inhibit growth of human renal (ACHN) cell line. The format is functional.
The next test has as its system U-251. Description: Concentration required to inhibit growth of human CNS (U251) cell line. The test is classed as functional.
The subject of a further test is SW-620. Briefly: Concentration required to inhibit growth of human colon (SW620) cell line. The format is functional.
A further test has as its system PC-3. Description: Concentration required to inhibit growth of human prostate (PC3) cell line. The test is classed as functional.
In another test the test system is NCI-H522 (Homo sapiens). Briefly: Concentration required to inhibit growth of human lung (H522) cell line.
Another test relates to HT-29. Description: Concentration required to inhibit growth of human colon (HT-29) cell line. The format is functional.
Test [1] concerns Mus musculus. Description: (§1) Anticancer activity after implantation of HT-29 human adeno carcinoma xenograft in mice at a dose of 300 mg/kg. The format is functional.
The next test concerns OVCAR-8. Description: Concentration required to inhibit growth of human ovarian (OVCAR8) cell line. The format is functional.
The test system of test [2] is Mus musculus. Briefly: Anticancer activity after implantation of HT-29 human adeno carcinoma xenograft in mice at a dose of 300 mg/kg; 0/6. The format is functional. Background: Xenograft models place foreign cells or tissue in a host animal.
The next test concerns MCF7. Description: Concentration required to inhibit growth of human breast (MCF-7) cell line. The format is functional.
For a further test, the system named is UACC-62. Briefly: Concentration required to inhibit growth of human melanoma (UACC62) cell line. The format is functional.
A further test deals with NCI/ADR-RES. Briefly: in vitro inhibition of MCF-7/ADR (human breast cancer) cell growth. The format is functional.
The test system of test [3] is Mus musculus. The description is as §1. The test is classed as functional. More on the design: reference not given here.
A further test relates to DU-145. Briefly: In vitro inhibition of DU145 (human prostate cancer) cell growth. The test is classed as functional.
The subject of the next test is SK-OV-3. Description: Concentration required to inhibit growth of human ovarian (SK-OV3) cell line. The test is classed as functional.
The test system of test [4] is Mus musculus. Briefly: Anticancer activity after implantation of HT-29 human adeno carcinoma xenograft in mice at a dose of 300 mg/kg; 1/6. The format is functional.

A word on the GI50: it is the concentration giving 50% growth inhibition. Broadly, the inhibition in vivo is the drop in the measured response relative to a control, in per cent. With `COc1cc2ncnc(Nc3ccc(CS(=O)(=O)/C=C/c4ccc(Cl)cc4Cl)cc3)c2cc1OC`, the concentration for 50% growth inhibition (GI50) amounted to 15 µM in the test with ACHN; 13 µM in the test on U-251; 2 µM in the test on SW-620; 5 µM in the test on PC-3; 6 µM in the test with NCI-H522 (Homo sapiens); 6 µM in the test with HT-29. Also, the GI50 in the test on OVCAR-8 amounted to 2 µM; with MCF7, 11 µM; in the test with UACC-62, 21 µM; in the test on NCI/ADR-RES, 24 µM; in the test with DU-145, 1.4 µM; in the test with SK-OV-3 it was 2 µM. The inhibition in vivo at 300 mg/kg in the test with Mus musculus [1] turned out to be 68%. The molecule further yielded a Mortality in the test on Mus musculus [2] of 0. Moreover, the Mean body weight in the test on Mus musculus [3] stood at 12%.
Take `O=S(=O)(/C=C/c1ccc(Cl)cc1Cl)Cc1ccc(Nc2ncnc3ccc(Br)cc23)cc1`: the GI50 in the test with ACHN was 0.1 µM; in the test on U-251 it was 4 µM; in the test on SW-620, > 100 µM; in the test on PC-3, 4 µM; with NCI-H522 (Homo sapiens), 8 µM; in the test with HT-29, 28 µM. Besides, the GI50 in the test on OVCAR-8 is 3 µM; in the test on MCF7, 4 µM; in the test with UACC-62, 2 µM; in the test with NCI/ADR-RES it was > 100 µM; in the test with DU-145 it was 2 µM; in the test on SK-OV-3, 1 µM. The molecule also displayed a Mortality in the test with Mus musculus [4] of 1. Also, the inhibition in vivo at 300 mg/kg in the test on Mus musculus [1] is 22%. In the test on Mus musculus [3], this molecule came in with a Mean body weight of 4%.
On to `O=S(=O)(/C=C/c1ccc(F)cc1F)Cc1ccc(Nc2ncnc3cc(Cl)ccc23)cc1`, for which the GI50 in the test on ACHN, in the test on U-251, with SW-620, in the test on PC-3, in the test on NCI-H522 (Homo sapiens) and in the test with HT-29 was > 100 µM each time. The GI50 in the test on OVCAR-8, in the test with MCF7, with UACC-62, in the test with NCI/ADR-RES, in the test with DU-145 and with SK-OV-3 was > 100 µM in each case.
For `N#Cc1ccc(/C=C/S(=O)(=O)Cc2ccc(Nc3ncnc4ccccc34)cc2)cc1`, the GI50 in the test with ACHN, with U-251, in the test with SW-620, with PC-3, with NCI-H522 (Homo sapiens) and with HT-29 was > 100 µM each time. Further, the concentration for 50% growth inhibition (GI50) with OVCAR-8, in the test on MCF7, with UACC-62, in the test with NCI/ADR-RES, with DU-145 and in the test on SK-OV-3 was > 100 µM each time.
In the case of `O=S(=O)(/C=C/c1ccc(F)cc1)Cc1ccc(Nc2ncnc3ccccc23)cc1`, the GI50 in the test with ACHN worked out at 0.01 µM; in the test on U-251, 0.01 µM; in the test on SW-620, 100 µM; in the test with PC-3, 1 µM; with NCI-H522 (Homo sapiens) it was 13 µM; in the test with HT-29 it was 1 µM. The GI50 in the test with OVCAR-8 came out at 2 µM; in the test on MCF7, 16 µM; with UACC-62 it was 5 µM; in the test with DU-145, 0.3 µM; in the test with SK-OV-3, 2 µM. Also, the inhibition in vivo at 300 mg/kg in the test with Mus musculus [1] worked out at 84%. The molecule also showed a Mortality with Mus musculus [2] of 0. This molecule showed a Mean body weight with Mus musculus [3] of 5%.
For `O=S(=O)(/C=C/c1ccc(Cl)cc1)Cc1ccc(Nc2ncnc3ccccc23)cc1`, the GI50 with ACHN was > 100 µM; with U-251, 49 µM; in the test on SW-620, 77 µM; in the test with PC-3, 43 µM; in the test on NCI-H522 (Homo sapiens), 46 µM; in the test on HT-29, 73 µM. Besides, the 50% growth inhibitory concentration (GI50) in the test on OVCAR-8 is > 100 µM; in the test with MCF7 it was 52 µM; with UACC-62, 13 µM; with NCI/ADR-RES, > 100 µM; in the test on DU-145, > 100 µM; in the test with SK-OV-3 it was 54 µM.
Take `O=S(=O)(/C=C/c1ccc(C(F)(F)F)cc1F)Cc1ccc(Nc2ncnc3cc(Cl)ccc23)cc1`: the GI50 in the test with ACHN, in the test on U-251, with SW-620, in the test with PC-3, in the test with NCI-H522 (Homo sapiens) and in the test with HT-29 was > 100 µM throughout. The GI50 in the test with OVCAR-8, with MCF7, in the test with UACC-62, with NCI/ADR-RES, in the test on DU-145 and with SK-OV-3 was > 100 µM in each case.
Take `COc1cc2ncnc(Nc3ccc(CS(=O)(=O)/C=C/c4ccc(F)cc4)cc3)c2cc1OCCCN1CCOCC1`: the GI50 is 0.2 µM with ACHN; 18 µM in the test with U-251; > 100 µM with SW-620; 28 µM in the test with PC-3; > 100 µM in the test with NCI-H522 (Homo sapiens); > 100 µM with HT-29. Moreover, the GI50 is > 100 µM in the test on OVCAR-8; 3 µM in the test with MCF7; 55 µM in the test on UACC-62; 3 µM with NCI/ADR-RES; 4 µM in the test on DU-145; > 100 µM in the test with SK-OV-3.
With `COc1cc2ncnc(Nc3ccc(CS(=O)(=O)/C=C/c4ccc(F)cc4)cc3)c2cc1OC`, the GI50 in the test with ACHN, with U-251, with SW-620, with PC-3, with NCI-H522 (Homo sapiens) and in the test on HT-29 was > 100 µM throughout. The GI50 with OVCAR-8, with MCF7, in the test with UACC-62, in the test on NCI/ADR-RES, in the test on DU-145 and in the test with SK-OV-3 was > 100 µM throughout.
On to `O=S(=O)(/C=C/c1ccc(Cl)cc1Cl)Cc1ccc(Nc2ncnc3ccccc23)cc1`, for which the GI50 was found to be 0.1 µM in the test on ACHN; 4 µM with U-251; 14 µM with SW-620; 19 µM in the test with PC-3; 12 µM with NCI-H522 (Homo sapiens); 24 µM in the test on HT-29. In addition, the concentration for 50% growth inhibition (GI50) in the test on OVCAR-8 is 4 µM; with MCF7 it was 4 µM; in the test with UACC-62, 2 µM; in the test on NCI/ADR-RES it was 5 µM; in the test with DU-145 it was 3 µM; with SK-OV-3, 2 µM. Also, in the test with Mus musculus [1], the inhibition in vivo at 300 mg/kg amounted to 22%. In the test with Mus musculus [2], the Mortality worked out at 0. This molecule yielded a Mean body weight with Mus musculus [3] of 7%.
